From US5654296A, “Condensed heterocyclic compounds, their production and use” (priority 1994, dated 1997) come the findings set out here.

Where a name gives a salt, the structure may show the parent alone.

Experiment [1] deals with 45Ca2+ uptake (veratrine-stimulated, rat cerebral cortex crude synaptosome fraction). Description: 45Ca2+ uptake inhibition experiment. Conditions: 30 μM veratrine, 37° C., 10 minutes, read-out: 45Ca2+ uptake inhibitory activity (IC50 μM). The format is biochemical. In short, it runs like this:
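Rat cerebral cortex crude synaptosomes preincubated with test drug 10 min at 37° C, then stimulated with 30 μM veratrine plus 45Ca2+ for 10 min at 37° C; quenched with EGTA, filtered, radioactivity counted by liquid scintillation. Inhibition rate derived from uptake with/without drug and with/without veratrine.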

For experiment [2], the target named is T1, GnRH receptors (bovine pituitary anterior lobe membrane fraction) (Bos taurus, UniProt P32236).
T1 construct: A bovine pituitary anterior lobe membrane fraction containing GnRH receptors was prepared; from tissue; host or cells: bovine pituitary anterior lobe, membrane fraction
T1 sequence (P32236 1-328): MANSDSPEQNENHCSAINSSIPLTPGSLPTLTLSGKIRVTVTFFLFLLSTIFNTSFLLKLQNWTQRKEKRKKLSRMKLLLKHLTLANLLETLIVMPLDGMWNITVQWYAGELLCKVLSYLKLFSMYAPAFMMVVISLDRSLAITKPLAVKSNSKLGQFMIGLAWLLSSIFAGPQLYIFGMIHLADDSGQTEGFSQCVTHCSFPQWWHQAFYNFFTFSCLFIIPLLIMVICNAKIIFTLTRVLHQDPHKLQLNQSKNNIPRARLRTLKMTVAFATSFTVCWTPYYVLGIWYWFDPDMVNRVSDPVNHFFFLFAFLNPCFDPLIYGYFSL
The experiment can be described thus: 125I-leuprolerin GnRH receptor binding inhibition test, bovine pituitary anterior lobe membrane fraction. As to conditions: 4° C., 90 minutes, read-out: Binding inhibitory activity (IC50 μM) Bovine. As to the method:
Ten (10) μl of 3×10^4 M aqueous leuprolerin solution and 10 μl of 0.01 mg/ml lactoperoxidase were taken in a tube and 10 μl of Na^125 I solution (37 MBq) was added. After stirring, 10 μl of 0.001% H2 O2 was added and the reaction was conducted at room temperature for 20 minutes. Then, 700 μl of 0.05% TFA solution was added to the tube to terminate the reaction and the reaction mixture was purified by reverse-phase HPLC. The HPLC conditions are shown below. ^125 I-leuprolerin was eluted after a retention time of 26-27 minutes. (C) Preparation of a Bovine Pituitary Anterior Lobe Membrane Fraction Containing GnRH Receptors A bovine pituitary anterior lobe membrane fraction containing GnRH receptors was prepared by the same procedure as described under (B). However, a 10,000×G centrifugation supernatant was recentrifuged at 100,000×G for 1 hour to provide the membrane fraction pellet. […] For the rat and human membrane fractions prepared in (B) and (D), each membrane fraction was diluted with assay buffer to a concentration of 200 μg/ml and distributed in 188 μl portions into tubes. As to the bovine membrane fraction prepared in (C), the membrane fraction was diluted with assay buffer to 750 μg/ml and distributed in 188 μl portions into tubes. […] Where the rat or bovine pituitary anterior lobe membrane fraction was used, the reaction was conducted at 4° C. for 90 minutes. Where the membrane fraction of the CHO with human GnRH receptors expressed was used, the reaction was carried out at 25° C. for 60 minutes. […] After filtration, the radioactivity of ^125 I-leuprolerin remaining on the filter was measured with a γ-counter. The expression (TB-SB)/(TB-NSB)×100 (where SB=radioactivity with the compound added, TB=maximum bound radioactivity, NSB=nonspecifically bound radioactivity) was calculated to find the binding inhibition rate of each test compound.

In the case of `c1ccc(CCNCCCC2(c3ccccc3)COCc3ccccc32)cc1` (stereo not drawn) [Example I-24, 4-[3-(β-Phenethylamino)propyl]-4-phenylisochroman hydrochloride], the values for the IC50 in experiment [1] and in experiment [2] were 1.77 µM and 7 µM, respectively.

In the case of `c1ccc(C2(CCCN3CCCCC34CCc3ccccc3C4)COCc3ccccc32)cc1` (centres unmarked) [Example I-35, 3,4-Dihydro-1'-[3-(4-phenylisochroman-4-yl)propyl]spiro[naphthalene-2(1H),2'-piperidine] hydrochloride], the half-maximal inhibitory concentration (IC50) stood at 0.14 µM in experiment [1] and 6 µM in experiment [2].

In the case of `COc1ccc2c(c1)CCC1(CCCCN1CCCC1(c3ccccc3)COCc3ccccc31)C2` (centres unmarked) [Example I-36, 3,4-Dihydro-6-methoxy-1'-[3-(4-phenylisochroman-4-yl)propyl]spiro[naphthalene-2(1H),2'-piperidine] hydrochloride], the IC50 in experiment [1] amounted to 0.76 µM; in experiment [2], 11 µM.

Take `COC(=O)c1cccc(CNCCCC2(c3ccccc3)COCc3ccccc32)c1` (stereo not drawn) [Example I-45, Methyl α-[3-(4-Phenylisochroman-4-yl)propylamino]-m-toluate hydrochloride]: the IC50 in experiment [2] is 5 µM.

Turning to `COc1cc2c(cc1OC)CC1(CCCCN1CCCCC1(c3ccccc3)COCc3ccccc31)CC2` (centres unmarked) [Example I-52, 3,4-Dihydro-6,7-dimethoxy-1'-[4-(4-phenylisochroman-4-yl)butyl]spiro[naphthalene-2(1H),2'-piperidine] hydrochloride], the IC50 in experiment [2] was 5 µM.

What is called IC50 is the midpoint of a concentration-inhibition curve.
